Data set [1] can be described thus: logP by HPLC on reversed-phase column (C 18), EEC Directive 79/831 Annex V.A8. The format is physicochemical.
The test system of data set [2] is weeds. Nature of the data set: Post-emergence test (Example B), damage to weeds. In kind it is in vivo. Conditions: test plants of 5-15 cm sprayed, rated after three weeks. The procedure:
(§1) To produce a suitable preparation of active compound, 1 part by weight of active compound is mixed with the stated amount of solvent, the stated amount of emulsifier is added and the concentrate is diluted with water to the desired concentration.
Test plants of a height of 5-15 cm are sprayed with the preparation of active compound such that the particular amounts of active compound desired are applied per unit area. The concentration of the spray liquor is chosen such that the particular amounts of active compound desired are applied in 1000 l of water/ha.
After three weeks, the degree of damage to the plants is rated in % damage in comparison to the development of the untreated control.
The figures denote: • 0%=no effect (like untreated control) • 100%=total destruction

Data set [3] deals with weeds. In words: Pre-emergence test (Example A), damage to weeds. The format is in vivo. Conditions: soil sprayed 24 hours after sowing, rated after three weeks. The procedure:
as §1
Seeds of the test plants are sown in normal soil. After 24 hours, the soil is sprayed with the preparation of active compound such that the particular amount of active compound desired is applied per unit area. The concentration of active compound in the spray liquor is chosen such that the particular amount of active compound desired is applied in 1000 liters of water per hectare.
After three weeks, the degree of damage to the plants is rated in % damage in comparison to the development of the untreated control. The figures denote: • 0%=no effect (like untreated control) • 100%=total destruction

Marks after values point to notes of the source that are not given here.

As to `C=CCONC(=O)Nc1cc(-n2c(=O)cc(C(F)(F)F)n(C)c2=O)c(F)cc1Br` [Example 26], the logP entry in data set [1] is “logP = 2.67^a)”. The “activity against weeds (degree of damage)” value (shortened to “activity against weeds”) with weeds [2] and in the data set on weeds [3] was “strong activity” in each case.

On to `CCONC(=O)Nc1cc(-n2c(=O)cc(C(F)(F)F)n(C)c2=O)c(F)cc1Cl` [Example 27], for which the logP result in data set [1] is recorded as “logP = 2.45^a)”. The “activity against weeds” value with weeds [2] and in the data set with weeds [3] was “strong activity” in each case.

On to `Cn1c(C(F)(F)F)cc(=O)n(-c2cc(NC(=O)N3CCCO3)c(Br)cc2F)c1=O` [Example 28], for which the logP entry in data set [1] was “logP = 2.63^a)”. The “activity against weeds” value with weeds [2] and with weeds [3] was “strong activity” throughout.

For the compound `Cn1c(C(F)(F)F)cc(=O)n(-c2cc(NC(=O)N3CCOC3=O)c(Br)cc2F)c1=O` [Example 30], in data set [1], the logP result is recorded as “logP = 2.59^a)”. Besides, the “activity against weeds” value in the data set with weeds [2] and in the data set with weeds [3] was “strong activity” each time.

For the compound `Cn1ccsc1=NC(=O)Nc1cc(-n2c(=O)cc(C(F)(F)F)n(C)c2=O)c(F)cc1Br` [Example 31], the logP result in data set [1] is recorded as “logP = 2.59^a)”. Moreover, the “activity against weeds” value in the data set on weeds [2] and in the data set on weeds [3] was “strong activity” each time.

Take `Cn1ccsc1=NC(=O)Nc1cc(-n2c(=O)cc(C(F)(F)F)n(C)c2=O)c(F)cc1Cl` [Example 32]: the logP entry in data set [1] was “logP = 2.51^a)”. In addition, the “activity against weeds” value with weeds [2] and in the data set with weeds [3] was “strong activity” throughout.

On to `CN(Cc1ccco1)C(=O)Nc1cc(-n2c(=O)cc(C(F)(F)F)n(C)c2=O)c(F)cc1Br` [Example 37], for which the logP entry in data set [1] is “logP = 2.95^a)”. Moreover, the “activity against weeds” value with weeds [2] and with weeds [3] was “strong activity” in each case.

Take `CCCN(C(=O)Nc1cc(-n2c(=O)cc(C(F)(F)F)n(C)c2=O)c(F)cc1Br)C(C)C` [Example 38]: the logP result in data set [1] is “logP = 2.79^a)”. Further, the “activity against weeds” value in the data set with weeds [2] and in the data set on weeds [3] was “strong activity” each time.

As to `Cn1c(C(F)(F)F)cc(=O)n(-c2cc(NC(=O)NC3=NCCS3)c(Br)cc2F)c1=O` [Example 39], the logP entry in data set [1] is recorded as “logP = 2.16^a)”. Further, the “activity against weeds” value in the data set with weeds [2] and in the data set on weeds [3] was “strong activity” each time.

On to `CN(Cc1ccco1)C(=O)Nc1cc(-n2c(=O)cc(C(F)(F)F)n(C)c2=O)c(F)cc1Cl` [Example 44], for which, in data set [1], the logP result is reported as “logP = 2.88^a)”. Besides, the “activity against weeds” value in the data set on weeds [2] and in the data set on weeds [3] was “strong activity” in each case.

As for `CCCN(C(=O)Nc1cc(-n2c(=O)cc(C(F)(F)F)n(C)c2=O)c(F)cc1Cl)C(C)C` [Example 45], the logP result in data set [1] is listed as “logP = 2.58^a)”. The “activity against weeds” value in the data set with weeds [2] and with weeds [3] was “strong activity” throughout.

As for `Cn1c(C(F)(F)F)cc(=O)n(-c2cc(NC(=O)NC3=NCCS3)c(Cl)cc2F)c1=O` [Example 48], in data set [1], the logP entry is “logP = 2.11^a)”. For the same compound, the “activity against weeds” value in the data set with weeds [2] and in the data set with weeds [3] was “strong activity” each time.

Values taken from patent US7521396B2, “Substituted (thioxo)carbonylaminophenyluracils” (Bayer CropScience AG, priority 2002, dated 2009).
